US12448394B2, “Heterocyclic pyrazole derivatives as type III receptor tyrosine kinase inhibitors” (DEVELOPMENT CENTER FOR BIOTECHNOLOGY, priority 2019, dated 2025)
Like-named read-outs stand apart in the source and are kept apart here.

Key:
FLT3-D835Y mutant kinase = target: T1, FLT3-D835Y mutant kinase (Homo sapiens, UniProt P36888, D835Y); assay: FLT3-D835Y mutant kinase assay (AlphaScreen); assay type: biochemical; conditions: read-out: Ranking of IC50 values, FLT3-D835Y
T1 construct: purchased SignalChem
T1 sequence (P36888 27-993 D835Y): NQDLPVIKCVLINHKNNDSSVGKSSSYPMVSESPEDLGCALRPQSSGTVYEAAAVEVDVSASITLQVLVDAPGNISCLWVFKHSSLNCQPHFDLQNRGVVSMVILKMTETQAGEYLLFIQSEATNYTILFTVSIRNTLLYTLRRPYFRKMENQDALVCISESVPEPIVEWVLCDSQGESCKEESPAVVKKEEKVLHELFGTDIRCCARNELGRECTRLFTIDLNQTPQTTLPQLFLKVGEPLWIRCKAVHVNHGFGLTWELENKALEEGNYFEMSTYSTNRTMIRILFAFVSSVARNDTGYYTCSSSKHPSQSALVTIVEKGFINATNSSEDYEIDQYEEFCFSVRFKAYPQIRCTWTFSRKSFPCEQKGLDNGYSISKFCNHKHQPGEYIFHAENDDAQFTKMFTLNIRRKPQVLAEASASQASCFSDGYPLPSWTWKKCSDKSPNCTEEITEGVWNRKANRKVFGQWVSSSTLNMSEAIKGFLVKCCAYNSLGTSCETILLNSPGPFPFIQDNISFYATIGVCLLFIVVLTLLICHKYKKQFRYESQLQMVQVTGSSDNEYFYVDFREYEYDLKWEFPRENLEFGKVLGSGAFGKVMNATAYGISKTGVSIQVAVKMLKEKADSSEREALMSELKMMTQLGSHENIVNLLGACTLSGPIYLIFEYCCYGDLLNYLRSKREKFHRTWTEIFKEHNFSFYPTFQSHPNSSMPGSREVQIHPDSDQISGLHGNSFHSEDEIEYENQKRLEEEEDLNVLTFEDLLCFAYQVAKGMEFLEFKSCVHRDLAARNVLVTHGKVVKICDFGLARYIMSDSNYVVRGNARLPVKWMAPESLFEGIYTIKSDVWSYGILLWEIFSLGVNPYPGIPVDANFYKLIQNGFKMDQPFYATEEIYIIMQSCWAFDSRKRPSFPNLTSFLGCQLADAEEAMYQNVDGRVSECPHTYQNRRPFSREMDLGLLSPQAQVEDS
Summary of the method: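 AlphaScreen readout of biotin-poly(Glu4:Tyr1) phosphorylation by 1 ng recombinant FLT3-D835Y. Conditions were 10 μM ATP, 10 mM MgCl2, MOPS pH 7.0, 30 min at 30 °C, EDTA stop. Compounds were serially diluted in duplicate to derive IC50.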

MET kinase = target: T2, MET kinase (Homo sapiens, UniProt P08581); assay: MET kinase assay (AlphaScreen, counter screen); assay type: biochemical; conditions: read-out: Ranking of IC50 values, MET
T2 construct: purchased SignalChem
T2 sequence (P08581 25-1390): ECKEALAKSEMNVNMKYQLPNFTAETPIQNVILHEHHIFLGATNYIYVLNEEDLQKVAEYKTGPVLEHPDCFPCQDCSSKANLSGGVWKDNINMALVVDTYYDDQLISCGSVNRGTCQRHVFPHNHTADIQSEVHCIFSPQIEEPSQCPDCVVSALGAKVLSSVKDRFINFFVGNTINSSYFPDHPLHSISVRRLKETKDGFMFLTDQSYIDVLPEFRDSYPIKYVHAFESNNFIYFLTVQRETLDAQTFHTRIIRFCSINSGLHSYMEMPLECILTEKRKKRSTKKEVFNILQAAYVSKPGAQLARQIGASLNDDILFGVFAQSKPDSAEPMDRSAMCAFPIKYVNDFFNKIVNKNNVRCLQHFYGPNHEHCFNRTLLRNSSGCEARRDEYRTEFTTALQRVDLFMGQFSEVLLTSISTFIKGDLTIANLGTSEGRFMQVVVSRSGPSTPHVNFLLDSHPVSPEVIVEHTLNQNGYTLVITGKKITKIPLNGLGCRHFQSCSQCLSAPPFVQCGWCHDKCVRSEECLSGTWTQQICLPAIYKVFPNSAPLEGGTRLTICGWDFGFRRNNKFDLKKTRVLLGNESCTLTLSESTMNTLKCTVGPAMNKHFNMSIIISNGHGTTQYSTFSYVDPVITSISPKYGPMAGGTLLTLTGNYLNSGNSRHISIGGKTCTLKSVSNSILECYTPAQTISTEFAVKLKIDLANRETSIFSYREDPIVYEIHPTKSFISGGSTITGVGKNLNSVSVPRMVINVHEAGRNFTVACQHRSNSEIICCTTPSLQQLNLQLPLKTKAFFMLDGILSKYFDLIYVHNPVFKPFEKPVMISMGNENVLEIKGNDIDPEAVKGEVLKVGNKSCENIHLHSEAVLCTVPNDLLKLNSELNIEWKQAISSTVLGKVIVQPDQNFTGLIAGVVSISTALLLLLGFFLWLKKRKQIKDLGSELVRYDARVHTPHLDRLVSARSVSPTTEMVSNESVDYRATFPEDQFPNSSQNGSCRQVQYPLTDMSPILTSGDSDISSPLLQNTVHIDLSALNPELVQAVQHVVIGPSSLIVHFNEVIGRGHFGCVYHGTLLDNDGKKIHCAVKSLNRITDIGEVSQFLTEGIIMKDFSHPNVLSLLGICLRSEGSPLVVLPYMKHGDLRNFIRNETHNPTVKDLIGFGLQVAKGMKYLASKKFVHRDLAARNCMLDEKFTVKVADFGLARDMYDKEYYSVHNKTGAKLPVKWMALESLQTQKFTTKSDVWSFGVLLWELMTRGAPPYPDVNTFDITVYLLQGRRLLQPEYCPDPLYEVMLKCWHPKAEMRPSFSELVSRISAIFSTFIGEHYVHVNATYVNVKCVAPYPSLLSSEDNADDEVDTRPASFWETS
Summary of the method: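 IC50 came from duplicate serial dilutions, with AlphaScreen detection of phosphorylated biotin-poly(Glu4:Tyr1). The reaction used 1 ng recombinant MET, 10 µM ATP […], and MOPS pH 7.0/MgCl2 buffer, ran 45 min at 30 °C, and was quenched with EDTA.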

[1] = test system: Molm-14 human acute myeloid leukemia cell with FLT3-ITD mutation; assay: Molm-14 cell proliferation assay (CellTiter 96); assay type: cell-based; conditions: Molm-14 cells, 72 hours treatment, CellTiter96, read-out: anti-proliferation activity Molm-14 (FLT3-ITD), IC50 ranking
Summary of the method: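 Molm-14 (FLT3-ITD AML) cells in RPMI 1640 with 10% heat-inactivated FBS were seeded at 25000 cells/well, incubated overnight at 37° C, 5% CO2, then treated with increasing compound concentrations for 72 hours. Viability was read as absorbance at 490 nm after 2˜4 hours with CellTiter96 AQueous One reagent.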

[2] = test system: A375 melanoma cell with BRAF V600E mutation; assay: A375 cell proliferation assay (counter screen); assay type: cell-based, human; conditions: 72 hours treatment, CellTiter96, read-out: anti-proliferation activity A375 BRAF V600E, IC50 ranking
Summary of the method: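 A375 cells (BRAF V600E) seeded at 2000 cells/well in DMEM with 10% FBS, settled overnight at 37° C, 5% CO2, then exposed to increasing compound concentrations for 72 hours. Viability read by MTS-type CellTiter96 AQueous reagent, absorbance at 490 nm after 2–4 hours.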

[3] = Homo sapiens, A-375, A375 cells

Row | SMILES | IC50 (FLT3-D835Y mutant kinase) | IC50 (MET kinase) | IC50 ([1]; Homo sapiens) | IC50 [2, 3] | IC50 [1] | IC50 ([2]; A375 cells)
1 | CCC(c1ccc(-c2cc3c(s2)Cc2c(-c4ccc5cnn(C)c5c4)n[nH]c2-3)cc1)N1CCOCC1 (centres unmarked) [Compound 28, 4-(1-(4-(3-(1-methyl-1H-indazol-6-yl)-1,4-dihydro-thieno[2′,3′:4,5]cyclopenta [1,2-c]pyrazol-6-yl)phenyl)propyl)morpholine] | 1 to 10 nM | > 1000 nM | 30 to 100 nM | > 10000 nM | – | –
2 | COc1cc(CN2CCOCC2)ccc1-c1cc2c(s1)Cc1c(-c3ccc4cnn(C)c4c3)n[nH]c1-2 [Compound 29, 4-(3-methoxy-4-(3-(1-methyl-1H-indazol-6-yl)-1,4-dihydrothieno [2′,3′:4,5]cyclopenta[1,2-c]pyrazol-6-yl)benzyl) morpholine] | < 1 nM | > 1000 nM | 30 to 100 nM | > 10000 nM | – | –
3 | Cn1ncc2ccc(-c3n[nH]c4c3Cc3sc(-c5cncc(C(=O)N6CCOCC6)c5)cc3-4)cc21 [Compound 31, (5-(3-(1-methyl-1H-indazol-6-yl)-1,4-dihydrothieno[2′,3′:4,5]cyclopenta[1,2-c]pyrazol-6-yl)pyridin-3-yl) (morpholino)methanone] | < 1 nM | > 1000 nM | < 30 nM | 1000 to 10000 nM | – | –
4 | Cn1ncc2ccc(-c3n[nH]c4c3Cc3sc(-c5ccc(CN6CCOCC6)cc5F)cc3-4)cc21 [Compound 32, 4-(3-fluoro-4-(3-(1-methyl-1H-indazol-6-yl)-1,4-dihydrothieno [2′,3′:4,5]cyclopenta [1,2-c]pyrazol-6-yl)benzyl)morpholine] | < 1 nM | > 1000 nM | 100 to 300 nM | > 10000 nM | – | –
5 | Cc1ccc(-c2cc3c(s2)Cc2c(-c4ccc5cnn(C)c5c4)n[nH]c2-3)cn1 [Compound 33, 3-(1-methyl-1H-indazol-6-yl)-6-(6-methylpyridin-3-yl)-1,4-dihydrothieno [2′,3′:4,5]cyclopenta [1,2-c]pyrazole] | < 1 nM | > 1000 nM | – | – | 30 to 100 nM | > 10000 nM
6 | Cn1ncc2ccc(-c3n[nH]c4c3Cc3sc(-c5ccc(C(=O)N6CCCCC6)cc5)cc3-4)cc21 [Compound 34, (4-(3-(1-methyl-1H-indazol-6-yl)-1,4-dihydro-thieno[2′,3′:4,5]cyclopenta [1,2-c]pyrazol-6-yl)phenyl)(piperidin-1-yl) methanone] | 1 to 10 nM | > 1000 nM | 30 to 100 nM | > 10000 nM | – | –
7 | CC(C)Cn1ncc2ccc(-c3n[nH]c4c3Cc3sc(-c5ccc(CN6CCOCC6)cc5)cc3-4)cc21 [Compound 35, 4-(4-(3-(1-isobutyl-1H-indazol-6-yl)-1,4-dihydro-thieno[2′,3′:4,5]cyclopenta [1,2-c]pyrazol-6-yl)benzyl)morpholine] | 1 to 10 nM | > 1000 nM | 100 to 300 nM | > 10000 nM | – | –
8 | Cn1ncc2ccc(-c3n[nH]c4c3Cc3sc(-c5cccc(C(=O)N6CCOCC6)c5)cc3-4)cc21 [Compound 37, (3-(3-(1-methyl-1H-indazol-6-yl)-1,4-dihydro-thieno[2′,3′:4,5]cyclopenta [1,2-c]pyrazol-6-yl)phenyl)(morpholino) methanone] | 1 to 10 nM | > 1000 nM | 30 to 100 nM | > 10000 nM | – | –
9 | Cn1ncc2ccc(-c3n[nH]c4c3Cc3sc(-c5ccc(C(=O)N6CCCC6)cc5)cc3-4)cc21 [Compound 38, (4-(3-(1-methyl-1H-indazol-6-yl)-1,4-dihydro-thieno[2′,3′:4,5]cyclopenta [1,2-c]pyrazol-6-yl)phenyl)(pyrrolidin-1-yl) methanone] | 1 to 10 nM | > 1000 nM | 30 to 100 nM | > 10000 nM | – | –
10 | Cn1ncc2ccc(-c3n[nH]c4c3Cc3sc(-c5ccc(CN6CCSCC6)cc5)cc3-4)cc21 [Compound 39, 3-(1-methyl-1H-indazol-6-yl)-6-(4-(thiomorpho-linomethyl)phenyl)-1,4-dihydrothieno[2′,3′:4,5] cyclopenta[1,2-c]pyrazole] | 1 to 10 nM | > 1000 nM | 30 to 100 nM | > 10000 nM | – | –
11 | Cn1ncc2ccc(-c3n[nH]c4c3Cc3sc(-c5cnc(C(=O)N6CCOCC6)nc5)cc3-4)cc21 [Compound 41, (5-(3-(1-methyl-1H-indazol-6-yl)-1,4-dihydrothieno[2′,3′:4,5]cyclopenta[1,2-c]pyrazol-6-yl)pyrimidin-2-yl) (morpholino)methanone] | 1 to 10 nM | > 1000 nM | < 30 nM | > 10000 nM | – | –
12 | CC(C)n1ncc2ccc(-c3n[nH]c4c3Cc3sc(-c5ccc(CN6CCOCC6)cc5)cc3-4)cc21 [Compound 42, 4-(4-(3-(1-isopropyl-1H-indazol-6-yl)-1,4-dihydro-thieno[2′,3′:4,5]cyclopenta [1,2-c]pyrazol-6-yl)benzyl)morpholine] | 1 to 10 nM | > 1000 nM | 100 to 300 nM | > 10000 nM | – | –
13 | COc1cc(-c2cc3c(s2)Cc2c(-c4ccc5cnn(C)c5c4)n[nH]c2-3)ccc1C(=O)N1CCOCC1 [Compound 43, (2-methoxy-4-(3-(1-methyl-1H-indazol-6-yl)-1,4-dihydrothieno [2′,3′:4,5]cyclopenta [1,2-c]pyrazol-6-yl)phenyl)(morpholino) methanone] | 1 to 10 nM | > 1000 nM | 30 to 100 nM | > 10000 nM | – | –
14 | Cn1ncc2ccc(-c3n[nH]c4c3Cc3sc(-c5ccc(C(=O)N6CCOCC6)c(F)c5)cc3-4)cc21 [Compound 44, (2-fluoro-4-(3-(1-methyl-1H-indazol-6-yl)-1,4-dihydrothieno[2′,3′:4,5]cyclopenta[1,2-c]pyrazol-6-yl)phenyl)(morpholino) methanone] | < 1 nM | > 1000 nM | < 30 nM | > 10000 nM | – | –
15 | Cn1ncc2ccc(-c3n[nH]c4c3Cc3sc(-c5cnc(N)nc5)cc3-4)cc21 [Compound 45, 5-(3-(1-methyl-1H-indazol-6-yl)-1,4-dihydrothieno [2′,3′:4,5]cyclopenta[l,2-c]pyrazol-6-yl)pyrimidin-2-amine] | < 1 nM | > 1000 nM | < 30 nM | > 10000 nM | – | –
16 | Cn1cc(-c2cc3c(s2)Cc2c(-c4ccc5cnn(C)c5c4)n[nH]c2-3)cc1C(=O)N1CCOCC1 [Compound 46, (1-methyl-4-(3-(1-methyl-1H-indazol-6-yl)-1,4-dihydrothieno[2′,3′:4,5]cyclopenta[1,2-c]pyrazol-6-yl)-1H-pyrrol-2-yl) (morpholino)methanone] | < 1 nM | > 1000 nM | < 30 nM | > 10000 nM | – | –
17 | Cn1ncc2ccc(-c3n[nH]c4c3Cc3sc(-c5ccc(S(=O)(=O)N6CCOCC6)cc5)cc3-4)cc21 [Compound 47, 4-((4-(3-(1-methyl-1H-indazol-6-yl)-1,4-dihydro-thieno[2′,3′:4,5]cyclopenta [1,2-c]pyrazol-6-yl)phenyl)sulfonyl) morpholine] | < 1 nM | > 1000 nM | < 30 nM | > 10000 nM | – | –
